Experimental data reported in paper PMC6430017, “Structural and chemical insights into the covalent-allosteric inhibition of the protein kinase Akt” (Chemical Science, 2019).

Key:
Assay in all cases: SelectScreen Z'LYTE kinase profiling
Format in all cases: biochemical
Details in all cases: ATP at apparent KM
[1] = target: T1, GRK7 (Homo sapiens, UniProt Q8WTQ7)
T1 sequence (Q8WTQ7 1-553): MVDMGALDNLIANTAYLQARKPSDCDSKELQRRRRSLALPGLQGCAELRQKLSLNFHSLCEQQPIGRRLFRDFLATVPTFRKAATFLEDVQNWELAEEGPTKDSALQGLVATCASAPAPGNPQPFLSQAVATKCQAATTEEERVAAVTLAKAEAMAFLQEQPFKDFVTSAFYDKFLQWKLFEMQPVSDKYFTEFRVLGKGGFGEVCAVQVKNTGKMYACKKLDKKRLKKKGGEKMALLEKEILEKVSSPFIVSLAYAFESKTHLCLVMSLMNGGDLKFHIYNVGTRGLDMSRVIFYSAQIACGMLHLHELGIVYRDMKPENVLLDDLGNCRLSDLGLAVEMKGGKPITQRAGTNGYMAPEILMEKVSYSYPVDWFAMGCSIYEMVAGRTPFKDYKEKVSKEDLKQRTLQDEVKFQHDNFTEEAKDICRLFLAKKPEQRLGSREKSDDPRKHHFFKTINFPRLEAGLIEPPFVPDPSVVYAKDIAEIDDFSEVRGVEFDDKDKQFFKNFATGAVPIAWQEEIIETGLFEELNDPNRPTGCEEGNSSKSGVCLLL
Procedure: (§1) protein kinases at a compound concentration of 1 µM. Measurements were performed in duplicates
(§2) and at the particular apparent ATP KM of each individual kinase employing the activity based Z’LYTE®
(§3) kinase assay of the SelectScreen® Kinase Profiling Services (ThermoFisher Scientific).
(§4) kinases at a compound concentration of 1 µM. Measurements were performed in duplicates and at
(§5) the particular apparent ATP KM of each individual kinase employing the activity based Z’LYTE® kinase
(§6) assay of the SelectScreen® Kinase Profiling Services (ThermoFisher Scientific).

[2] = target: AMPK A1/B1/G1 (Homo sapiens, UniProt Q13131)
Procedure: as §1, §2, §3, §4, §5, §6

[3] = target: MAPKAPK3 (Homo sapiens, UniProt Q16644)
Procedure: as §1, §2, §3, §4, §5, §6

[4] = target: RPS6KA4 (MSK2) (Homo sapiens, UniProt O75676)
Procedure: as §1, §2, §3, §4, §5, §6

[5] = target: T2, PDK1 Direct (Homo sapiens, UniProt O15530)
T2 sequence (O15530 1-556): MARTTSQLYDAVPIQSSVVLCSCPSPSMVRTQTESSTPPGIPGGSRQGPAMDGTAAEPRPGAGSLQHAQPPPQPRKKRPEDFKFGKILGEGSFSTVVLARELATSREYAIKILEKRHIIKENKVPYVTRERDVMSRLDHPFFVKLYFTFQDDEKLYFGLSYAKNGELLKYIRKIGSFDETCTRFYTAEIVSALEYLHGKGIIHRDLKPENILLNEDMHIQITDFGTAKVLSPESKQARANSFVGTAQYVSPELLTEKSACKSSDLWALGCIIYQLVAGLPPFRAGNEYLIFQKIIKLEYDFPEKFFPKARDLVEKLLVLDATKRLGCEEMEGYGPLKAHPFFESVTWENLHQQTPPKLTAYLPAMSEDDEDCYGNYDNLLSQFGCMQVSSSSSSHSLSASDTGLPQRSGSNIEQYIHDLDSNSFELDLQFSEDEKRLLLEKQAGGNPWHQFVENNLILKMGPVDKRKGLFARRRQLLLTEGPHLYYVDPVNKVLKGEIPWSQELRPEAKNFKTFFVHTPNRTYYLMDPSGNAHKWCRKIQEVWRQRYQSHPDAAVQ
Procedure: as §1, §2, §3, §4, §5, §6

[6] = target: T3, PRKCN (PKD3) (Homo sapiens, UniProt O94806)
T3 sequence (O94806 1-890): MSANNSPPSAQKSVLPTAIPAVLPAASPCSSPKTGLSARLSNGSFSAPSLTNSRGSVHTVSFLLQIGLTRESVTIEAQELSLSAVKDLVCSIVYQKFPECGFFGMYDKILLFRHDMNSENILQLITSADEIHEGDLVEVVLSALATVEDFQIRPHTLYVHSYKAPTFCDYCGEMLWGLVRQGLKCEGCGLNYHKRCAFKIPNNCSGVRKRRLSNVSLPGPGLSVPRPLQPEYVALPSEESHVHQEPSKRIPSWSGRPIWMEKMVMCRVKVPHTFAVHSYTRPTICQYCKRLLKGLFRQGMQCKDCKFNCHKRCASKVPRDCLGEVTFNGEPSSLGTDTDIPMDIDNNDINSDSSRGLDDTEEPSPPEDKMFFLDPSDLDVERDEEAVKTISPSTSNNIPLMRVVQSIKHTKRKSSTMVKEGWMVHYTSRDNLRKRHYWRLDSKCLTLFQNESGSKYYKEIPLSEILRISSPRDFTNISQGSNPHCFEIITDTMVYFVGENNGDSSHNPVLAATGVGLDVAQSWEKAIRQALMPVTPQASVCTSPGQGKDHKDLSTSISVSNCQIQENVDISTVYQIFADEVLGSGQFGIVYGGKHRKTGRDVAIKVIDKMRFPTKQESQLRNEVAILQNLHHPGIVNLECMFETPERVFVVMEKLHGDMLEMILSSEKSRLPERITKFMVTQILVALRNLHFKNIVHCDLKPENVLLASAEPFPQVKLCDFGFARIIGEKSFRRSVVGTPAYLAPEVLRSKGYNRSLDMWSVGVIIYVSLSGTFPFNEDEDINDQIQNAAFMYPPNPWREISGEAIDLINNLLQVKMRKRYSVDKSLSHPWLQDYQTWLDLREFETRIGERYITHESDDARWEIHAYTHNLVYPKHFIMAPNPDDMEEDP
Procedure: as §1, §2, §3, §4, §5, §6

[7] = target: SYK (Homo sapiens, UniProt P43405)
Procedure: as §1, §2, §3, §4, §5, §6

[8] = target: PKN1 (PRK1) (Homo sapiens, UniProt Q16512)
Procedure: as §1, §2, §3, §4, §5, §6

[9] = target: KIT (Homo sapiens, UniProt P10721)
Procedure: as §1, §2, §3, §4, §5, §6

[10] = target: GRK4 (Homo sapiens, UniProt P32298)
Sequence of GRK4 (P32298 whole entry): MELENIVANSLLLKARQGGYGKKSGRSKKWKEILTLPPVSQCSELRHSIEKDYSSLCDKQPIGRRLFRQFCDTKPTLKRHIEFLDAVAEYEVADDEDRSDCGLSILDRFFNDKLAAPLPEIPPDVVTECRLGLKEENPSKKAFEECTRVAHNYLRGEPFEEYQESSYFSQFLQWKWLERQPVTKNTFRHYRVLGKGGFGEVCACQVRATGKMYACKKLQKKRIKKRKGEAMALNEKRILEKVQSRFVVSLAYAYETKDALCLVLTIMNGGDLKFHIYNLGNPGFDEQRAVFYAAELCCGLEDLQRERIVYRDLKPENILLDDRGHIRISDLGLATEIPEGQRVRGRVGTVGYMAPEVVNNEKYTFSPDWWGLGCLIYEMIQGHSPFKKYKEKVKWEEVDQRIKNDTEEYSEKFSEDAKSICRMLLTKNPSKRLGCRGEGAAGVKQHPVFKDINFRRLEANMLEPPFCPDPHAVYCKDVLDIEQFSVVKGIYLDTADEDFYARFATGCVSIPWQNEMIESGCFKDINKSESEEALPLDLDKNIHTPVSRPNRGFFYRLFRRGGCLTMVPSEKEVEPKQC
Procedure: as §1, §2, §3, §4, §5, §6

Sequence of RPS6KA4 (MSK2) (O75676 whole entry): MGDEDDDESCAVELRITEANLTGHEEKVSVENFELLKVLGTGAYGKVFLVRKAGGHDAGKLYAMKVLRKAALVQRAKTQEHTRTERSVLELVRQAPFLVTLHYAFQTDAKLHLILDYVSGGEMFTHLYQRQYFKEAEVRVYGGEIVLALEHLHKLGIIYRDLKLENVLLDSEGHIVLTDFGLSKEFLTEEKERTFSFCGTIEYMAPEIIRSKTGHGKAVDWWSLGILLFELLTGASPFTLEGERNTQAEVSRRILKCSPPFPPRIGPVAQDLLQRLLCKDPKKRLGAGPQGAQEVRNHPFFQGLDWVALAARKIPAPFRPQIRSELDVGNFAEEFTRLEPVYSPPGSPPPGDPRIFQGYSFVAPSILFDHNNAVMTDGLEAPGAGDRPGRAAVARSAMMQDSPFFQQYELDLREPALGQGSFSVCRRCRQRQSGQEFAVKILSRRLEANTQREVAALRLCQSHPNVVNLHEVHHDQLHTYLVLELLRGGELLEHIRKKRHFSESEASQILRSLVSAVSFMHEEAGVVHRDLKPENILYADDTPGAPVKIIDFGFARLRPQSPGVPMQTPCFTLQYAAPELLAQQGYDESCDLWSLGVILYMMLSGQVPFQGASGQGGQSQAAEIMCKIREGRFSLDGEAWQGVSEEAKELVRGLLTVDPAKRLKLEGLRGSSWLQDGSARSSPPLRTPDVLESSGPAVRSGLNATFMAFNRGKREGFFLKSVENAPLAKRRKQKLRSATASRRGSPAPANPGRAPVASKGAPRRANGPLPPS
Sequence of MAPKAPK3 (Q16644 whole entry): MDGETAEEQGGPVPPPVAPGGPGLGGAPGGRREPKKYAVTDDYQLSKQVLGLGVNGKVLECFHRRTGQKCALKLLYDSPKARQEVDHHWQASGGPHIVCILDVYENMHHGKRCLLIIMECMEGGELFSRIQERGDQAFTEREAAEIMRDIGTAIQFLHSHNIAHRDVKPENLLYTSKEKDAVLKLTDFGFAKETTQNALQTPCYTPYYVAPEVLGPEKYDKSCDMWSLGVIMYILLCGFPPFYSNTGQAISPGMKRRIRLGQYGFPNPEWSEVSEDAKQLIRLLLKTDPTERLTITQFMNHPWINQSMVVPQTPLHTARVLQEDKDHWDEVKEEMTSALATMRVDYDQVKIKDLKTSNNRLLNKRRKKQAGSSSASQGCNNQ
Sequence of AMPK A1/B1/G1 (Q13131 whole entry): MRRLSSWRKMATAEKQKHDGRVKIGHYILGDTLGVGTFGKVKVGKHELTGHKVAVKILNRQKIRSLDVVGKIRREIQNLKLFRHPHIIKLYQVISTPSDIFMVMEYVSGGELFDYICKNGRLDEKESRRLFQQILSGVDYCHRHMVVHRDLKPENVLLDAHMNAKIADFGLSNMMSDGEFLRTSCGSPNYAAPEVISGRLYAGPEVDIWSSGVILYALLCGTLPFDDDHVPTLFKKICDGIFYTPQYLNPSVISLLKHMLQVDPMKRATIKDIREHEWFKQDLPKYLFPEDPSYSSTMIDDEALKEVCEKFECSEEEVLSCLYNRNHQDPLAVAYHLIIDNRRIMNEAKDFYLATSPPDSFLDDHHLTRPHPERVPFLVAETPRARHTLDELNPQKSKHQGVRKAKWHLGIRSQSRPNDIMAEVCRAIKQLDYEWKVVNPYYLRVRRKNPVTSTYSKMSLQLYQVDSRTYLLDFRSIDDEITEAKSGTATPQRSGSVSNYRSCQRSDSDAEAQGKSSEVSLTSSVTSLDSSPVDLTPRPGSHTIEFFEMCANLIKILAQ
Sequence of AMPK A1/B1/G1 (Q9Y478 whole entry partner): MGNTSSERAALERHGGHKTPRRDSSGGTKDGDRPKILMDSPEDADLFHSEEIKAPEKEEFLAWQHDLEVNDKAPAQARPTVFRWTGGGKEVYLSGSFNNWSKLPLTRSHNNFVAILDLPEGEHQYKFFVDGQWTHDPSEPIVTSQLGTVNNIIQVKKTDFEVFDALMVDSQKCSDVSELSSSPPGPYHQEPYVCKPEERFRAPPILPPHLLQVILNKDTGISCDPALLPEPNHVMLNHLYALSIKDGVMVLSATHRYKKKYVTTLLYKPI
Sequence of AMPK A1/B1/G1 (P54619 whole entry partner): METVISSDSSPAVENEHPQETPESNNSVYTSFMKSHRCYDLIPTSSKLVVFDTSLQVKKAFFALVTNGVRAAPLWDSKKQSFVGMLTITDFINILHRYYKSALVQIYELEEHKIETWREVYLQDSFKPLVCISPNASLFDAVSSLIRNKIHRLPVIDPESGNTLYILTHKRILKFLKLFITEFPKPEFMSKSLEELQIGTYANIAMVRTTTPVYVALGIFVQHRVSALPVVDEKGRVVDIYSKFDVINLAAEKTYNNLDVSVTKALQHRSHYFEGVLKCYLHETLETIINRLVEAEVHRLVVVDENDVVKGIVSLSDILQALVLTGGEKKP
Sequence of KIT (P10721 26-976): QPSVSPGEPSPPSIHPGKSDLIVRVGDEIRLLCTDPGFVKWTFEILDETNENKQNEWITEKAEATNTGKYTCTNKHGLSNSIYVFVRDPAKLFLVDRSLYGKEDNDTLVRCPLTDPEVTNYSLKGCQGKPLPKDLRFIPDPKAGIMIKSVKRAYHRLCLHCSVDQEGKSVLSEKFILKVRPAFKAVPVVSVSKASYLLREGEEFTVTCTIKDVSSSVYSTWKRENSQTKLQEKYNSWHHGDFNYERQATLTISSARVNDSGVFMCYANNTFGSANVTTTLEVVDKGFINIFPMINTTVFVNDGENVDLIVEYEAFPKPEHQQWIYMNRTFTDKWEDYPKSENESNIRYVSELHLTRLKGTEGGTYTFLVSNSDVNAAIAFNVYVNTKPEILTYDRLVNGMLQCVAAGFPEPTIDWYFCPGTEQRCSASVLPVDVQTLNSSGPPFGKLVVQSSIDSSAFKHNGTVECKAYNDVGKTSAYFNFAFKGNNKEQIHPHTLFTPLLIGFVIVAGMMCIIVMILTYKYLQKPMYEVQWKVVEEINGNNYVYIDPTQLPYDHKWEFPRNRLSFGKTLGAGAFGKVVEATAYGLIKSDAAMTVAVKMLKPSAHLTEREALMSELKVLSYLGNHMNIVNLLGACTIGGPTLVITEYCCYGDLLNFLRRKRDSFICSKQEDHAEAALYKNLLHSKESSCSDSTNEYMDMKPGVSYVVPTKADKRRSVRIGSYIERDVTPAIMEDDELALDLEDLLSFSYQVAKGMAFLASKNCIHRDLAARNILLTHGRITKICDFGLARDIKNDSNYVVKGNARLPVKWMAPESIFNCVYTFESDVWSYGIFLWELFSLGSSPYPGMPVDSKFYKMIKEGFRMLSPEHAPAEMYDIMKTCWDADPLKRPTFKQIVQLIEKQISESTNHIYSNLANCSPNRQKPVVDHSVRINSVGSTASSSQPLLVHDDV
Sequence of PKN1 (PRK1) (Q16512 whole entry): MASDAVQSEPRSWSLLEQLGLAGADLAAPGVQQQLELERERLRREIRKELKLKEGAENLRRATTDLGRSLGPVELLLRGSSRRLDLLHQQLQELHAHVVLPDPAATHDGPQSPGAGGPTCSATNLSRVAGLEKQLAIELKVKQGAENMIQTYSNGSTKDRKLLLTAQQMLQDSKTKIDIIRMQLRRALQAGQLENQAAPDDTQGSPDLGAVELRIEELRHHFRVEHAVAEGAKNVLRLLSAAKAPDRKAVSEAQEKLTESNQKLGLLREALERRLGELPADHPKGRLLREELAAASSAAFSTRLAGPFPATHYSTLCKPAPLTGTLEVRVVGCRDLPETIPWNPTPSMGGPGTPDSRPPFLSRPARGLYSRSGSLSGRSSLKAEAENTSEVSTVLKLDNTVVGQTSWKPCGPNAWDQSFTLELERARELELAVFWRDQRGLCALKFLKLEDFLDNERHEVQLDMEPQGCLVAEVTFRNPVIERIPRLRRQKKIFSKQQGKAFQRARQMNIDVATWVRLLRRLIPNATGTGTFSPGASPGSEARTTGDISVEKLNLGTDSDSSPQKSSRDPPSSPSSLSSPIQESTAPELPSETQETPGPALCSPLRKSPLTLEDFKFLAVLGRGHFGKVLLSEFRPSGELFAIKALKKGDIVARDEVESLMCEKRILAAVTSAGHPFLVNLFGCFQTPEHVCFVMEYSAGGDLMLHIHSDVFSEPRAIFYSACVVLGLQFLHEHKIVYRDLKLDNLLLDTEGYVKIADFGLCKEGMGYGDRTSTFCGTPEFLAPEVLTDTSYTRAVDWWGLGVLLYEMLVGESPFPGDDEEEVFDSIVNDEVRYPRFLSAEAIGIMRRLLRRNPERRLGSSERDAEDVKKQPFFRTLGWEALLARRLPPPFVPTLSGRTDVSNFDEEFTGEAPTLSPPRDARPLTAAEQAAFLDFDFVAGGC

Structure (SMILES) | inhibition at 1 µM [1] [%] | inhibition at 1 µM [2] [%] | inhibition at 1 µM [3] [%] | inhibition at 1 µM [4] [%] | inhibition at 1 µM [5] [%] | inhibition at 1 µM [6] [%] | inhibition at 1 µM [7] [%] | inhibition at 1 µM [8] [%] | inhibition at 1 µM [9] [%] | inhibition at 1 µM [10] [%]
C=CC(=O)Nc1cccc(C(=O)NC2CCN(Cc3ccc(-c4nc5cc[nH]c(=O)c5cc4-c4ccccc4)cc3)CC2)c1 [30b] | 5 | 46 | 23 | 11 | 1 | 14 | 15 | 1 | 9 | 6
C=CC(=O)Nc1cc(NC(=O)NC2CCN(Cc3ccc(-c4nc5cc[nH]c(=O)c5cc4-c4ccccc4)cc3)CC2)ccc1Cl [compound 27] | 5 | 76 | 23 | 16 | 3 | 16 | 5 | 6 | 9 | 11
C=CC(=O)Nc1ccc2c(c1)n(C1CCN(Cc3ccc(-c4nc5cc[nH]c(=O)c5cc4-c4ccccc4)cc3)CC1)c(=O)n2C [24b] | -4 | 17 | 23 | 9 | 8 | 10 | 4 | -1 | 6 | -1
